Measured values as given in article PMC9579398 (Clinical and Translational Science, 2022).
Where two headings read alike, the source gives them in different places.

Legend:
jejunum = details: mucosal to serosal direction, cited from earlier work
[1] = human in vivo; cited from earlier work
[2] = Ussing chamber drug transport across adult intestinal tissue; details: human
[3] = Ussing chamber drug transport across pediatric intestinal tissue; details: human
[4] = test system: adult terminal ileum tissue; assay: Ussing chamber drug transport across adult intestinal tissue; details: adult, M > S (mucosal to serosal)
[5] = adult jejunum, ref Michiba et al., 2021 [19]
[6] = Papp, estimated marginal mean ± SE, adult, M > S (mucosal to serosal), mixed model
[7] = Papp, estimated marginal mean ± SE, adult, S > M (serosal to mucosal), mixed model
[8] = Papp, mean ± SD, adult, M > S (mucosal to serosal)
[9] = Papp, mean ± SD, adult, S > M (serosal to mucosal)
[10] = Papp, estimated marginal mean ± SE, pediatric, M > S (mucosal to serosal), mixed model
[11] = Papp, estimated marginal mean ± SE, pediatric, S > M (serosal to mucosal), mixed model
[12] = Papp, mean ± SD, pediatric, M > S (mucosal to serosal)
[13] = Papp, mean ± SD, pediatric, S > M (serosal to mucosal)

| efflux ratio [2] | Papp [2, 6] [×10⁻⁶ cm/s] | Papp [2, 7] [×10⁻⁶ cm/s] | Papp [2, 8] [×10⁻⁶ cm/s] | Papp [2, 9] [×10⁻⁶ cm/s] | Papp at 4 µM [2, 9] [×10⁻⁶ cm/s] | efflux ratio [3] | Papp [3, 10] [×10⁻⁶ cm/s] | Papp [3, 11] [×10⁻⁶ cm/s] | Papp [3, 12] [×10⁻⁶ cm/s] | Papp [3, 13] [×10⁻⁶ cm/s] | Papp at 4 µM [3, 13] [×10⁻⁶ cm/s] | Papp, mean ± SD [4] | Compound | Papp (jejunum; [5]) | Papp (jejunum; jejunum, ref Sjoberg et al., 2013 [17]) | fraction absorbed [1] [%] |
| --- | --- | --- | --- | --- | --- | --- | --- | --- | --- | --- | --- | --- | --- | --- | --- | --- |
| 2.1 ± 1 | 6.32 ± 0.97 | 11.2 ± 0.91 | 6.3 ± 2.8 | 11.2 ± 5.49 | 11.2 ± 5.5 | 1.3 ± 0.6 | 3.8 ± 0.88 | 7.53 ± 1 | 4.73 ± 2.04 | 7.53 ± 3.66 | 7.5 ± 3.7 | – | CC(C)c1nc(N(C)S(C)(=O)=O)nc(-c2ccc(F)cc2)c1/C=C/[C@@H](O)C[C@@H](O)CC(=O)O [Rosuvastatin] | 1.6 ± 0.6 × 10^−6 cm/s | 7.0 ± 1.0 × 10^−6 cm/s | 50 |
| – | 12 ± 1.28 | 10.3 ± 1.27 | 12.4 ± 6.2 | 10.7 ± 5.02 | – | – | 7.98 ± 1.45 | 7.74 ± 1.47 | 7.49 ± 4.58 | 8.27 ± 4.7 | – | 12.38 ± 6.15 ×10^–6 cm/s | CC(C)NCC(O)COc1cccc2ccccc12 (stereo not shown) [Propranolol] | 7.8 ± 4.6 × 10^−6 cm/s | – | – |
